Reference: publication PMC7449217, “The FDA-Approved Drug Nelfinavir Inhibits Lytic Cell-Free but Not Cell-Associated Nonlytic Transmission of Human Adenovirus” (Antimicrobial Agents and Chemotherapy, 2020)
Where a name gives a salt, the structure may show the parent alone. Read-outs that look alike come from different tables or passages of the source.

What was measured:
HBEC = assay type: cell-based; details: human
Description: (§1) Per 96-well plate, 15,000 A549 cells, 10,000 HeLa cells, 30,000 HBECs, 30,000 HCE cells, or 30,000 CMT-93 cells were seeded in 100 μl of the respective supplemented medium and allowed to settle for 1 h at room temperature (RT) prior to cell culture incubation at 37°C with 5% CO2 and 95% humidity. The following day, the medium was replaced with 50 μl of the respective virus stock dilution giving rise to 5 to 50 plaques per 96-well plate. Fifty microliters of nelfinavir to obtain a 0.1 to 50 μM final concentration or the DMSO solvent control was also added, both in supplemented medium. For each experiment, a noninfected, treated control was performed. For uphill plaque assays, the medium volume was increased to 150 μl with identical virus and drug concentrations. For wash-in/washout experiments, the virus was incubated on cells in supplemented medium for 1 h at 37°C, cells were washed with PBS, and a 100-μl drug dilution in supplemented medium was added. All experiments were performed in four technical replicates or as indicated. Cells were incubated under standard cell culture conditions. At the indicated times postinfection, the cells were fixed, and the nuclei were stained for 1 h at RT by the addition of 33 μl 16% (wt/vol) paraformaldehyde (PFA) and 4 μg/ml Hoechst 33342 (Sigma-Aldrich, St. Louis, MO, USA) in PBS. Cells were washed three times with PBS and stored in PBS supplemented with 0.02% N3 for infections with viruses harboring a GFP transgene. For wild-type (wt) viruses, cells were quenched in PBS supplemented with 50 mM NH4Cl, permeabilized using 0.2% (vol/vol) Triton X-100 in PBS, and blocked with 0.5% (wt/vol) bovine serum albumin (BSA) in PBS. Cells were incubated with 381.7 ng/ml mouse anti-HAdV hexon protein antibody (Mab8052; Sigma-Aldrich, St. Louis, MO, USA) and subsequently stained using 2 μg/ml goat anti-mouse-Alexa Fluor 594 (catalog number A21203 or A32742; Thermo Fisher Scientific, Waltham, MA, USA). Plates were imaged on either an IXM-XL or an IXM-C automated high-throughput fluorescence microscope (Molecular Devices, San Jose, CA, USA) using a 4× objective in wide-field mode. Hoechst staining was recorded in the 4′,6-diamidino-2-phenylindole (DAPI) channel, the fluorescein isothiocyanate (FITC)/GFP channel was acquired for viral GFP, and the tetramethyl rhodamine isothiocyanate (TRITC)/Texas Red channel was acquired for hexon immunofluorescence staining.
(§2) The infection phenotype for each well was quantified using Plaque2.0 ([101]). The number of plaques was determined based on the infection signal (viral GFP or hexon immunofluorescence staining). Nuclei stained with Hoechst were segmented by using CellProfiler ([178]). Infected nuclei were classified based on the median infection signal per nucleus in CellProfiler. Data were plotted, and the EC50 (infected and treated cells), the TC50 (noninfected, treated cells), as well as the corresponding standard errors (SE) were determined using curve fitting in GraphPad (version 8.1.2; GraphPad Software, Inc.) using three-parameter inhibitor concentration-versus-response nonlinear regression. The mean TI50 was calculated as the […] ratio of the means. The TI50 SE was calculated by error propagation.

HAdV-D8 = test: fluorescence-based plaque-forming assay, A549 cells; assay type: cell-based, human adenovirus
Description: as §1, §2

dl712 (HAdV-C5/2-dADP) = test: as above; assay type: cell-based, human adenovirus
Description: as §1, §2

HAdV-D30 = test: as above; assay type: cell-based, human adenovirus
Description: as §1, §2

HAdV-B35-pIX-FS2A-GFP = test: as above; assay type: cell-based, human adenovirus
Description: as §1, §2

HAdV-A31 = test: as above; assay type: cell-based, human adenovirus
Description: as §1, §2

HAdV-D37 = test: as above; assay type: cell-based, human adenovirus
Description: as §1, §2

HAdV-B3-pIX-FS2A-GFP = test: as above; assay type: cell-based, human adenovirus
Description: as §1, §2

rec700 (HAdV-C5/2) = test: as above; assay type: cell-based, human adenovirus
Description: as §1, §2

HAdV-C2 = test: as above; assay type: cell-based, human adenovirus
Description: as §1, §2

uninfected A549 cells = test: cellular impedance measurement (xCELLigence), nelfinavir toxicity; assay type: cell-based, human
Description: Impedance-based assays were performed using the xCELLigence system (Roche Applied Science and ACEA Biosciences) as described previously ([152], [153]), according to the manufacturer’s instructions ([177]), in a cell culture environment (37°C, 5% CO2, and 95% humidity) in duplicates. The 16-well E plates have a gold-plated sensor array embedded in their glass bottom by which the electrical impedance across each well bottom is measured. The impedance per well, termed the cell index (CI), is recorded as a dimensionless quantity. The background CI was assessed following the addition of 50 μl supplemented medium to each well and equilibration in the incubation environment. After 30 min of equilibration, 9,000 A549 cells in 50 μl supplemented medium were added per well, and measurement was started.
For the quantification of nelfinavir toxicity, 50 μl of the supernatant was removed 18 h later and replaced with 2-fold-concentrated nelfinavir or DMSO solvent as the control dilution in supplemented medium (final nelfinavir concentration of 0.4 to 100 μM in 100 μl/well). The control was supplemented medium. Impedance was recorded every 15 min over 5 days. The TC50 indicates the concentration of nelfinavir that caused a 50% impedance reduction compared to the solvent-treated cells. The TC50 was calculated by nonlinear regression of the solvent-normalized CI over the concentration of nelfinavir.

MAdV-3-pIX-FS2A-GFP = test: fluorescence-based plaque-forming assay, CMT-93 cells; assay type: cell-based, mouse adenovirus
Description: Per 96-well plate, 15,000 A549 cells, 10,000 HeLa cells, 30,000 HBECs, 30,000 HCE cells, or 30,000 CMT-93 cells were seeded in 100 μl of the respective supplemented medium and allowed to settle for 1 h at room temperature (RT) prior to cell culture incubation at 37°C with 5% CO2 and 95% humidity. The following day, the medium was replaced with 50 μl of the respective virus stock dilution giving rise to 5 to 50 plaques per 96-well plate. Fifty microliters of nelfinavir to obtain a 0.1 to 50 μM final concentration or the DMSO solvent control was also added, both in supplemented medium. For each experiment, a noninfected, treated control was performed. […] Plates were imaged on either an IXM-XL or an IXM-C automated high-throughput fluorescence microscope (Molecular Devices, San Jose, CA, USA) using a 4× objective in wide-field mode. Hoechst staining was recorded in the 4′,6-diamidino-2-phenylindole (DAPI) channel, the fluorescein isothiocyanate (FITC)/GFP channel was acquired for viral GFP, and the tetramethyl rhodamine isothiocyanate (TRITC)/Texas Red channel was acquired for hexon immunofluorescence staining.
The infection phenotype for each well was quantified using Plaque2.0 ([101]). The number of plaques was determined based on the infection signal (viral GFP or hexon immunofluorescence staining). […] The mean TI50 was calculated as the EC50/TC50 ratio of the means. […]

SMILES: Cc1c(O)cccc1C(=O)N[C@@H](CSc1ccccc1)[C@H](O)CN1C[C@H]2CCCC[C@H]2C[C@H]1C(=O)NC(C)(C)C [Nelfinavir, Nelfinavir mesylate]
- TC50 (HBEC; 6 days): 13.33 µM
- TC50 (HBEC; 8 days): 12.74 µM
- TI50 (TC50/IC50) (HAdV-D8; HAdV-D8 in A549, 5 dpi, Hexon): 2.36
- EC50 (HAdV-D8; Human adenovirus sp., HAdV-D8 in A549, fixation 5 dpi, read-out Hexon, plaque numbers): 9.09 µM
- EC50 (dl712 (HAdV-C5/2-dADP); Human adenovirus sp., A549): 6.87 µM
- TI50 (TC50/IC50) (dl712 (HAdV-C5/2-dADP); dl712 (HAdV-C5/2-dADP) in A549, 5 dpi, Hexon): 2.18
- TI50 (TC50/IC50) (HAdV-D30; HAdV-D30 in A549, 5 dpi, Hexon): 3.18
- EC50 (HAdV-D30; Human adenovirus sp., HAdV-D30 in A549, fixation 5 dpi, read-out Hexon, plaque numbers): 4.2 µM
- TI50 (TC50/IC50) (HAdV-B35-pIX-FS2A-GFP; HAdV-B35-pIX-FS2A-GFP in A549, 4 dpi, Hexon): 6.13
- EC50 (HAdV-B35-pIX-FS2A-GFP; Human adenovirus sp., A549): 2.49 µM
- TI50 (TC50/IC50) (HAdV-A31; HAdV-A31 in A549, 6 dpi, Hexon): 1.35
- EC50 (HAdV-A31; Human adenovirus sp., HAdV-A31 in A549, fixation 6 dpi, read-out Hexon, plaque numbers): 14.1 µM
- TI50 (TC50/IC50) (HAdV-D37; HAdV-D37 in A549, 5 dpi, Hexon): 1.29
- EC50 (HAdV-D37; Human adenovirus sp., HAdV-D37 in A549, fixation 5 dpi, read-out Hexon, plaque numbers): 16.7 µM
- TI50 (TC50/IC50) (HAdV-B3-pIX-FS2A-GFP; HAdV-B3-pIX-FS2A-GFP in A549, 3 dpi, Hexon): 1.50
- EC50 (HAdV-B3-pIX-FS2A-GFP; Human adenovirus sp., A549): 10.2 µM
- EC50 (rec700 (HAdV-C5/2); Human adenovirus sp., A549): 0.07 µM
- TI50 (TC50/IC50) (rec700 (HAdV-C5/2); rec700 (HAdV-C5/2) in A549, 4 dpi, Hexon): 177.41
- TI50 (TC50/IC50) (HAdV-C2; HAdV-C2 in A549, 4 dpi, Hexon): 71.09
- EC50 (HAdV-C2; Human adenovirus sp., HAdV-C2 in A549, fixation 4 dpi, read-out Hexon, plaque numbers): 0.24 µM
- toxicity in cell index (CI) profiles (uninfected A549 cells; uninfected A549, up to 6.25 µM, more than 4 days of incubation): little signs of toxicity
- median toxicity TC50 (cell impedance) (uninfected A549 cells; uninfected A549 cells, incubation up to 115 h, xCELLigence): 25.7 µM
- TI50 (TC50/IC50) (MAdV-3-pIX-FS2A-GFP; MAdV-3-pIX-FS2A-GFP in CMT-93, 4 dpi, GFP): 3.00
- EC50 (MAdV-3-pIX-FS2A-GFP; Murine mastadenovirus A, CMT93): 8.7 µM
